Assay results reported in patent publication US4031244A, “Pharmaceutical compositions containing a 1-(2,6-dimethyl-phenoxy)-2-amino-alkane and method of use” (priority 1966, dated 1977).

system: not listed separately; test: Anticonvulsive activity by the electroshock method of Tooman et al; assay type: in vivo, mouse; conditions: in vivo; mouse; LD50 / ED50; read-out: Therapeutic ratio LD50 ED50
Excerpt: (§1) The anticonvulsive activity of the compounds of the formula I and their non-toxic acid addition salts, as well as of certain isomers and homologs described in the prior art, was as certained by the electroshock method of Tooman et al, J. Neurophysiol.

Going from CNCCOc1c(C)cccc1C [B, n-methyl-2-(2',6'-xylyloxy)-ethylamine] to Cc1cccc(C)c1OCCN [C, 2-(2',6'-xylyloxy)-ethylamine], the selectivity ratio rises from 2.7 to 6.4.

Cc1cccc(C)c1OCCCN [D, 3-(2',6'-xylyloxy)-propylamine] gave a selectivity ratio of 2.7.

system: mouse; test: as above; assay type: in vivo; conditions: Mus musculus, read-out: Anticonvulsive ED50
Excerpt: as §1

Compared with Cc1cccc(C)c1OCC(C)N (stereo not shown) [A, 1-(2',6'-dimethyl-phenoxy)-2-amino-propane], Cc1cccc(C)c1OCCN [C, 2-(2',6'-xylyloxy)-ethylamine] is 5-fold higher in ED50: 23 mg/kg for the first, 115 mg/kg for the second.

Compared with CNCCOc1c(C)cccc1C [B, n-methyl-2-(2',6'-xylyloxy)-ethylamine], Cc1cccc(C)c1OCCCN [D, 3-(2',6'-xylyloxy)-propylamine] is 2.7-fold higher in ED50: 80 mg/kg for the first, 216 mg/kg for the second.

system: not listed separately; test: in vivo; conditions: po, mouse
Excerpt: as §1

First: CNCCOc1c(C)cccc1C [B, n-methyl-2-(2',6'-xylyloxy)-ethylamine]
Second: Cc1cccc(C)c1OCCN [C, 2-(2',6'-xylyloxy)-ethylamine]
The LD50 of the first is 3.4-fold lower: 216 mg/kg for the first, 740 mg/kg for the second.

Work on Cc1cccc(C)c1OCCCN [D, 3-(2',6'-xylyloxy)-propylamine] yielded an LD50 of 580 mg/kg.

system: warmblooded animals, such as rats and mice; test: Pharmacodynamic properties (anticonvulsive, antiarrhythmic, sedative side effects) in warm-blooded animals; assay type: in vivo; conditions: specific compounds

With CCCC(N)COc1c(C)cccc1C (stereo not shown) [1-(2',6'-dimethyl-phenoxy)-2-amino-pentane] the effectiveness as anticonvulsives was “especially effective”.
With Cc1cccc(C)c1OCC(C)N (stereo not shown) [A, 1-(2',6'-dimethyl-phenoxy)-2-amino-propane] the effectiveness as anticonvulsives was “especially effective”.
With Cc1cccc(C)c1OCC(C)N.Cl (stereo not shown) [Example 1, 1-(2',6'-dimethyl-phenoxy)-2-amino-propane hydrochloride] the effectiveness as anticonvulsives was “especially effective”.
